Test results published in PubChem BioAssay AID1963835 (Molecular Pharmacology Branch, DTP, NCI, 2024).

System: 699152-130-R-J1-PDC complex spheroid viability
Experiment: Anticancer human tumor 699152-130-R-J1-PDC patient-derived pancreatic carcinoma cell line growth inhibition [POLQ]
Settings: for IC50: curve of first compound; for viability, T/C: stronger effect = lower value
Description: Multicellular complex tumor spheroid response to Polymerase (POL) inhibitors (novobiocin, ART-558, RP6685) in combination with a variety of drugs and investigational agents in selected tumor cell lines
The POL inhibitors (novobiocin, ART-558, and RP6685) were evaluated both individually and in combination with standard of care and investigational anticancer small molecules within a complex spheroid model of solid tumors. . Complex spheroids include a stromal component modeled by human endothelial cells (HUVEC) and fibroblasts modeled by human mesenchymal stem cells (MSCs). The concentration ranges selected for each drug and investigational agent were based upon clinically achievable concentrations if the clinical Cmax of the agent was known.
Compounds. The drugs and investigational agents: novobiocin (NSC847541), ART-558 (NSC835418), RP-6685 (NSC848927), peposertib (NSC802822), ceralasertib (NSC780249), elimusertib (NSC800525), camonsertib (NSC841442), AZD-1390 (NSC803789), olaparib (NSC753686), talazoparib (NSC767125), rucaparib (NSC756644), sotorasib (NSC818433), MRTX-1133 (NSC836407), SN-38 (NSC673596), topotecan (NSC609699), epotoside (NSC141540), doxorubicin (NSC123127), gemcitabine (NSC613327), 5-fluorouracil (NSC19893), paclitaxel (NSC125973), vemurafenib (NSC761431), MSA-2 (NSC828583), SN-011 (NSC837082), adavosertib (NSC754352), prexasertib (NSC758257), carboplatin (NSC241240) and oxaliplatin (NSC266046), were obtained from the National Cancer Institute (NCI) Developmental Therapeutics Program Chemical Repository (21). The FDA-approved anticancer drug set is available from the Developmental Therapeutics Program at https://dtp.cancer.gov/organization/dscb/obtaining/. […] The stock solutions were prepared in dimethyl sulfoxide (DMSO, Sigma-Aldrich, St. Louis, MO, cat. D2650), except for the platinum compounds which were prepared in saline (Quality Biological, Gaithersburg, MD, cat. 114-055-101), at 800-fold the tested concentration and stored at -70 degrees C prior to their use. All drugs and investigational agents were tested over a range starting from a high concentration at or near the clinical Cmax and decreasing in half-log increments. If the clinical Cmax for an agent had not been determined, the highest concentration tested was 10 microM, except for SN-38, which was tested at a high concentration of 1 microM.
Cell Culture. All cells were maintained in an incubator at 37 degrees C and 5% CO2 with 95% humidity. The PDC lines were cultured according to standard operating procedures established by the NCI PDMR (https://pdmr.cancer.gov). Table 3 of the manuscript, lists the cell lines along with the number of the three cell types plated to form the mct-spheroids and media for tumor cell growth. After thawing, all PDC lines, except 997537-175-T-J1-PDC and 415267-285-R-J2-PDC, were cultured in Matrigel-coated flasks prepared with a working solution of 1X Ham's F-12 nutrient mix, without supplementation (Thermo Fisher Scientific, cat. 11765054), 100 U/mL penicillin-streptomycin (Thermo Fisher Scientific, cat. 15140122), and 2.5% Matrigel (Corning Inc., Corning, NY, cat. 354248) for the first three passages. The two PDC lines 997537-175-T-J1-PDC and 415267-285-R-J2-PDC were cultured on uncoated flasks. The 857933-349-R-J2-PDC line was cultured in 6C/Colon 1B media containing advanced DMEM/F-12 (Thermo Fisher Scientific, cat. 12634028), 10 mM HEPES (Thermo Fisher Scientific, cat. 15630080), 1X GlutaMAX supplement (Thermo Fisher Scientific, cat. 35050061), 0.1 mg/mL primocin (InvivoGen, San Diego, CA, cat. ant-pm-2), 10% defined fetal bovine serum, heat inactivated (HyClone Laboratories Inc., Logan, UT, cat. SH30070.03HI), 50% L-WRN conditioned media (ATCC, cat. CRL-3276), 1.25 mM N-Acetyl-L-cysteine (Sigma-Aldrich, cat. A9165), 10 mM nicotinamide (Sigma-Aldrich, cat. N0636), 1X B-27 supplement (Thermo Fisher Scientific, cat. 17504044), 1X N-2 supplement (Thermo Fisher Scientific, cat. […]

[1] = second compound 0.0316 µM, first compound 0.0316 µM
[2] = second compound 0.0316 µM, first compound 0.1 µM
[3] = second compound 0.1 µM, first compound 0.0316 µM
[4] = second compound 0.1 µM, first compound 0.1 µM
[5] = second compound 0.316 µM, first compound 0.0316 µM
[6] = second compound 0.316 µM, first compound 0.1 µM
[7] = second compound 1 µM, first compound 0.0316 µM
[8] = second compound 1 µM, first compound 0.1 µM
[9] = second compound 3.16 µM, first compound 0.0316 µM
[10] = second compound 3.16 µM, first compound 0.1 µM
[11] = second compound 10 µM, first compound 0.0316 µM
[12] = second compound 10 µM, first compound 0.1 µM
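Note: spheroids exposed to agents for 7 days before viability reading.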
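Throughout, for viability, T/C: percent of DMSO vehicle control viability so 100% = vehicle and 0% = no viable signal.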

For COc1ccc([C@@H](O)c2cc(-c3ncnc4cc(N5CCOCC5)ccc34)c(F)cc2Cl)nn1 + COC1C(OC(N)=O)C(O)C(Oc2ccc3c(O)c(NC(=O)c4ccc(O)c(CC=C(C)C)c4)c(=O)oc3c2C)OC1(C)C, the IC50 (second compound 0.0316 µM) was 3.83 µM, the IC50 (second compound 0.1 µM) was 4.13 µM and the IC50 (second compound 0.316 µM) was 3.83 µM. It also gave an IC50 (second compound 1 µM) of 3.58 µM, an IC50 (second compound 3.16 µM) of 4.02 µM and an IC50 (second compound 10 µM) of 4.25 µM. It also gave a viability, T/C [1] of 94.5%, a viability, T/C [2] of 96.9% and a viability, T/C (second compound 0.0316 µM, first compound 0.316 µM) of 85.6%. For the same molecule, the viability, T/C (second compound 0.0316 µM, first compound 1 µM) was 82.8%, the viability, T/C (second compound 0.0316 µM, first compound 3.16 µM) was 53.9% and the viability, T/C (second compound 0.0316 µM, first compound 10 µM) was 26.3%. The viability, T/C [3] was 112%, the viability, T/C [4] was 87% and the viability, T/C (second compound 0.1 µM, first compound 0.316 µM) was 87%. For the same molecule, the viability, T/C (second compound 0.1 µM, first compound 1 µM) was 83%, the viability, T/C (second compound 0.1 µM, first compound 3.16 µM) was 56.1% and the viability, T/C (second compound 0.1 µM, first compound 10 µM) was 27.4%. For the same molecule, the viability, T/C [5] was 113%, the viability, T/C [6] was 107% and the viability, T/C (second compound 0.316 µM, first compound 0.316 µM) was 92.2%. For the same molecule, the viability, T/C (second compound 0.316 µM, first compound 1 µM) was 80.4%, the viability, T/C (second compound 0.316 µM, first compound 3.16 µM) was 54.7% and the viability, T/C (second compound 0.316 µM, first compound 10 µM) was 24%. It also gave a viability, T/C [7] of 118%, a viability, T/C [8] of 98.1% and a viability, T/C (second compound 1 µM, first compound 0.316 µM) of 96.9%. It also gave a viability, T/C (second compound 1 µM, first compound 1 µM) of 70.1%, a viability, T/C (second compound 1 µM, first compound 3.16 µM) of 58.5% and a viability, T/C (second compound 1 µM, first compound 10 µM) of 22.6%. It also gave a viability, T/C [9] of 98.3%, a viability, T/C [10] of 108% and a viability, T/C (second compound 3.16 µM, first compound 0.316 µM) of 86.6%. The viability, T/C (second compound 3.16 µM, first compound 1 µM) was 88.7%, the viability, T/C (second compound 3.16 µM, first compound 3.16 µM) was 56.2% and the viability, T/C (second compound 3.16 µM, first compound 10 µM) was 21.6%. The viability, T/C [11] was 101%, the viability, T/C [12] was 90.8% and the viability, T/C (second compound 10 µM, first compound 0.316 µM) was 90.9%. It also gave a viability, T/C (second compound 10 µM, first compound 1 µM) of 71.6%, a viability, T/C (second compound 10 µM, first compound 3.16 µM) of 60.6% and a viability, T/C (second compound 10 µM, first compound 10 µM) of 27.7%.

In the case of Cn1ncnc1[C@H]1c2n[nH]c(=O)c3cc(F)cc(c23)N[C@@H]1c1ccc(F)cc1 + COC1C(OC(N)=O)C(O)C(Oc2ccc3c(O)c(NC(=O)c4ccc(O)c(CC=C(C)C)c4)c(=O)oc3c2C)OC1(C)C, the IC50 (second compound 0.0316 µM) is reported as > 0.1 µM, the IC50 (second compound 0.1 µM) is reported as > 0.1 µM and the IC50 (second compound 0.316 µM) is reported as > 0.1 µM. The IC50 (second compound 1 µM) was > 0.1 µM, the IC50 (second compound 3.16 µM) was > 0.1 µM and the IC50 (second compound 10 µM) was > 0.1 µM. The viability, T/C (second compound 0.0316 µM, first compound 0.000316 µM) was 114%, the viability, T/C (second compound 0.0316 µM, first compound 0.001 µM) was 86.2% and the viability, T/C (second compound 0.0316 µM, first compound 0.00316 µM) was 101%. It also gave a viability, T/C (second compound 0.0316 µM, first compound 0.01 µM) of 93.4%, a viability, T/C [1] of 92.9% and a viability, T/C [2] of 84.8%. It also gave a viability, T/C (second compound 0.1 µM, first compound 0.000316 µM) of 102%, a viability, T/C (second compound 0.1 µM, first compound 0.001 µM) of 105% and a viability, T/C (second compound 0.1 µM, first compound 0.00316 µM) of 87.1%. It also gave a viability, T/C (second compound 0.1 µM, first compound 0.01 µM) of 111%, a viability, T/C [3] of 85% and a viability, T/C [4] of 80%. It also gave a viability, T/C (second compound 0.316 µM, first compound 0.000316 µM) of 101%, a viability, T/C (second compound 0.316 µM, first compound 0.001 µM) of 99.5% and a viability, T/C (second compound 0.316 µM, first compound 0.00316 µM) of 92.3%. For the same molecule, the viability, T/C (second compound 0.316 µM, first compound 0.01 µM) was 103%, the viability, T/C [5] was 87.8% and the viability, T/C [6] was 83.6%. It also gave a viability, T/C (second compound 1 µM, first compound 0.000316 µM) of 119%, a viability, T/C (second compound 1 µM, first compound 0.001 µM) of 107% and a viability, T/C (second compound 1 µM, first compound 0.00316 µM) of 101%. For the same molecule, the viability, T/C (second compound 1 µM, first compound 0.01 µM) was 102%, the viability, T/C [7] was 93.9% and the viability, T/C [8] was 82.5%. It also gave a viability, T/C (second compound 3.16 µM, first compound 0.000316 µM) of 95.3%, a viability, T/C (second compound 3.16 µM, first compound 0.001 µM) of 89.3% and a viability, T/C (second compound 3.16 µM, first compound 0.00316 µM) of 90.9%. It also gave a viability, T/C (second compound 3.16 µM, first compound 0.01 µM) of 96.9%, a viability, T/C [9] of 90.8% and a viability, T/C [10] of 80.8%. For the same molecule, the viability, T/C (second compound 10 µM, first compound 0.000316 µM) was 98.7%, the viability, T/C (second compound 10 µM, first compound 0.001 µM) was 105% and the viability, T/C (second compound 10 µM, first compound 0.00316 µM) was 93.9%. For the same molecule, the viability, T/C (second compound 10 µM, first compound 0.01 µM) was 103%, the viability, T/C [11] was 88.4% and the viability, T/C [12] was 90.4%.
